For assay [1], the system named is Z-138 cells. Nature of the assay: Anti-cancer assay (Z-138), cell viability by CellTiterGlo. It is filed as cell-based. The conditions noted are these: Homo sapiens, 96 h treatment, read-out: IC50 (activity range), inhibition of cell viability. On the procedure: Z-138 cells were seeded at a density of 2000-3000 cells per well in culture media (IMDM+10% FBS). PANC-1 (ATCC, CRL-1469™) and MIA PaCa-2 (ATCC, CRL-1420™) cells were seeded at a density of 200-300 cells per well in culture media (DMEM+10% FBS). Cells were seeded in opaque, flat bottomed tissue culture grade 96-well plates and Z-138 cells (suspension) were seeded and treated on the same day with various concentrations of test compounds. PANC-1 and MIA PaCa-2 cells, being adherent, were kept for overnight settlement at standard cell culture conditions (37° C., 5% CO2). On the following day, cells were treated with various concentrations of test compounds. Cells were treated with test compounds for a period of 96 h, 7 days and 10 days, for Z-138 cells, PANC-1 cells and MIA PaCa-2 cells, respectively. Cell viability was assessed using CellTiterGlo™ (Promega, USA) as per manufacturer's instructions. Relative Light Units (RLU) were read in Synergy™ 2 reader (Biotek, USA). The assay measures cellular ATP as an indicator of cell viability. RLU is proportional to the number of viable cells in the respective well. % inhibition of cell viability was calculated relative to the vehicle control samples containing media with 0.1% DMSO alone as per the formula below. (Avg. of Untreated Control−Avg. of Test)×100 Avg. Of Untreated Control
The IC50 values of individual compounds were calculated with Non Linear Regression Analysis using Graph Pad Prism (Graph Pad software, Inc, USA). • Anti-Cancer Assay (Z-138)

Assay [2] concerns the target PRMT5:MEP50 (Homo sapiens, UniProt O14744). The assay is described as follows: PRMT5 biochemical assay (HTRF, biotinylated H4R3 substrate), protocols 1 and 2. To be noted: 1 μM SAM, 50 nM biotinylated H4R3, protocol 1 or 2 not given, read-out: IC50 (activity range), inhibition of PRMT5. On the procedure: (§1) Inhibitory effect of compounds on PRMT5 was assessed using HTRF detection technology in biochemical assay. Biotinylated H4R3 (residues 1-21) was used as a substrate. Compounds were pre-incubated with 15-25 ng PRMT5:MEP50 per well of a 384-well plate for 30 min at room temperature in the assay buffer containing 20 mM Bicine, pH 7.6, 25 mM NaCl, 2 mM DTT, 0.01% Chicken albumin and 0.01% Tween-20. Reaction was initiated by adding 1 μM of SAM and 50 nM biotinylated H4R3. Total assay volume was 15 μL. Reaction was continued for 120 min at room temperature. Then detection solution containing Streptavidin-Eu cryptate, anti-rabbit IgG-XL-665, Histone H4R3 Dimethyl Symmetric (H4R3me2s) Polyclonal Antibody, all prepared in HTRF detection buffer was added and further incubated for 30 min at room temperature. HTRF signal was recorded in PHERAStar microplate reader. Ratio of signal obtained at 665 nm and 620 nm was used to compute the percent inhibition of compound as follows % Inhibition=100−((Test Ratio−Negative control Ratio)/(Positive control Ratio−Negative control Ratio)*100) where Positive control=PRMT5+SAM+H4R3 Negative control=PRMT5+H4R3 Biochemical Assay Protocol 2
as §1, with “2.5” for “15-25”, “4 h” for “120 min”, “control=PRMT5+H4R3” for “control=PRMT5+H4R3 Biochemical Assay Protocol 2”

Assay [3] deals with SDMA. Nature of the assay: SDMA inhibition assay in Z-138 cells (ELISA with anti-SDMA antibody). It is filed as cell-based. The conditions noted are these: Homo sapiens, Z-138, 48 h, 48 h treatment. On the procedure:
Z-138 cells (ATCC, CRL-3001™) were seeded at a density of 1 million cells/well in transparent, flat bottomed tissue culture grade 48-well plates. Cells were treated with various concentration of test compounds for a period of 48 h. Cell lysate was prepared using 1× CST Lysis buffer (Cell Signaling Technology, USA) and 500 ng/well/50 μL of lysate in pH 9.6 carbonate buffer was coated on 96-well Maxisorb plate and incubated overnight at 4° C. The plate was washed twice in 1×PBS containing 0.05% Tween 20 and blocked in 1% BSA for 1 h at ambient temperature. Further, the plate was incubated first with primary antibody (anti-SDMA antibody; CST #13222s) at ambient temperature for 2 h and then with HRP-conjugated secondary antibody at ambient temperature for 1 h with 2 intermittent washing steps in between.
For luminiscence based detection, HRP substrates (substrate A+substrate B in a 1:1 proportion) were added followed by luminiscence reading after 30 min in Synergy™ 2 reader (Biotek, USA).
For absorbance based detection, TMB substrate was added followed by addition of STOP solution (2N H2SO4) post colour development and absorbance (excitation 450 nm and emission 540 nm) was measured in Synergy™ 2 reader (Biotek, USA).
% inhibition of SDMA was calculated relative to the vehicle control samples containing media with 0.1% DMSO alone as per the formula below. (Avg. of Untreated Control−Avg. of Test)×100 Avg. Of Untreated Control
The IC50 values of individual compounds were calculated with Non Linear Regression Analysis using Graph Pad Prism (Graph Pad software, Inc, USA).

The mark [4] stands for this setting: read-out: IC50 (activity range), SDMA inhibition.
Setting [5] is: range with mixed units pM/nM, units kept in the value.

SMILES strings stand for the structures. Read-outs that look alike come from different tables or passages of the source. Bounds are passed on as bounds.

PRMT5:MEP50, sequence (O14744 whole entry, the tested form may be a part): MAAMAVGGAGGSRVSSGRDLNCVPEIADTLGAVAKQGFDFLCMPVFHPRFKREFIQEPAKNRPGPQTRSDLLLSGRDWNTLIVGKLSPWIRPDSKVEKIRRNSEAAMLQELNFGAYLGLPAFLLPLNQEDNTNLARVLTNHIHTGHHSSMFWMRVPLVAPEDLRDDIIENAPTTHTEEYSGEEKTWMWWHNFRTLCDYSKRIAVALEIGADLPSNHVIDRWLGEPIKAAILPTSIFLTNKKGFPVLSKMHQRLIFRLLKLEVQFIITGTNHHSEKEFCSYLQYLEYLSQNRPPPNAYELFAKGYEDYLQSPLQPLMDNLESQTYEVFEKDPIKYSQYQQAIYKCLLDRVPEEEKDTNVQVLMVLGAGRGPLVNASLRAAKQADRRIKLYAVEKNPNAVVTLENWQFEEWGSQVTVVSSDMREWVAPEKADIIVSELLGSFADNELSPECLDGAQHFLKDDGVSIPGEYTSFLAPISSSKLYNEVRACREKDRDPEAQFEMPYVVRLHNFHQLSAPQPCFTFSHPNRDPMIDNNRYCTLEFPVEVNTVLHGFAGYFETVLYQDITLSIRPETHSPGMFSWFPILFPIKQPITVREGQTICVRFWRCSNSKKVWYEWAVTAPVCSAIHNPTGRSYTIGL
PRMT5:MEP50, sequence (Q9BQA1 whole entry partner, the tested form may be a part): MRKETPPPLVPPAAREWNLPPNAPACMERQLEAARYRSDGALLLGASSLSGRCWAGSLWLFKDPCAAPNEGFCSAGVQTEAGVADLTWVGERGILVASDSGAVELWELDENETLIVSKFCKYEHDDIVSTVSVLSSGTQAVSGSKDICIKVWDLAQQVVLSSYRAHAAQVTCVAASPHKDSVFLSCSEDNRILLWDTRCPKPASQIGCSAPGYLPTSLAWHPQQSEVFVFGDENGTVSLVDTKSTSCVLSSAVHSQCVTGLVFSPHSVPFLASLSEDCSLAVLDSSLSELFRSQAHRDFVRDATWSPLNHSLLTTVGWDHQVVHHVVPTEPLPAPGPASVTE

As for `CC1CNCc2c(CCC3=C[C@@H](n4ccc5c(N)ncnc54)[C@H](O)[C@@H]3O)cc(C(F)F)c(F)c21` (single isomer, unassigned) [Compound 22A], the IC50 in assay [1] was more than 1000 pM; in assay [2] it was 250 to 950 pM; in assay [3] (setting [4]) it was 1100 to 50000 pM.

On to `CC1CNCc2c(CCC3=C[C@@H](n4ccc5c(N)ncnc54)[C@H](O)[C@@H]3O)cc(C(F)F)c(F)c21` (single isomer, unassigned) [Compound 22B], for which the IC50 in assay [3] (setting [5]) lay within 100 to 1000 pM.

Regarding `CC1Cc2c(F)c(C(F)F)cc(CCC3=C[C@@H](n4ccc5c(N)ncnc54)[C@H](O)[C@@H]3O)c2CN1` (single isomer, unassigned) [Compound 23A], the IC50 in assay [2] fell in the range of 250 to 950 pM; in assay [3] (setting [5]), 100 to 1000 pM.

As for `CC1Cc2c(F)c(C(F)F)cc(CCC3=C[C@@H](n4ccc5c(N)ncnc54)[C@H](O)[C@@H]3O)c2CN1` (single isomer, unassigned) [Compound 23B], the IC50 in assay [1] is more than 1000 pM; in assay [3] (setting [4]), 1100 to 50000 pM.

Take `Nc1nc2cc(CCC3=C[C@@H](n4cnc5c(N)ncnc54)[C@H](O)[C@@H]3O)cc(F)c2cc1Cl` [Compound 1, (1S,2R,5R)-3-(2-(2-Amino-3-chloro-5-fluoroquinolin-7-yl)ethyl)-5-(6-amino-9H-purin-9-yl)cyclopent-3-ene-1,2-diol]: the IC50 was 250 to 950 pM in assay [2] and 100 to 1000 pM in assay [3] (setting [5]).

As for `Nc1nc2cc(CCC3=C[C@@H](n4ccc5c(N)ncnc54)[C@H](O)[C@@H]3O)cnc2cc1Cl` [Compound 2, (1S,2R,5R)-3-(2-(6-Amino-7-chloro-1,5-naphthyridin-3-yl)ethyl)-5-(4-amino-7H-pyrrolo [2,3-d]pyrimidin-7-yl)cyclopent-3-ene-1,2-diol], the IC50 in assay [1] was more than 1000 pM; in assay [2], 250 to 950 pM; in assay [3] (setting [4]) it was 1100 to 50000 pM.

In the case of `Nc1cnc2ccc(CCC3=C[C@@H](n4ccc5c(N)ncnc54)[C@H](O)[C@@H]3O)cc2n1` [Compound 3, (1S,2R,5R)-5-(4-Amino-7H-pyrrolo[2,3-d]pyrimidin-7-yl)-3-(2-(3-aminoquinoxalin-6-yl)ethyl)cyclopent-3-ene-1,2-diol], the half-maximal inhibitory concentration (IC50) in assay [1] was more than 1000 pM; in assay [2], 250 to 950 pM; in assay [3] (setting [4]), 1100 to 50000 pM.

Turning to `Nc1cnc2ccc(CC[C@@]34C[C@@H]3[C@@H](n3ccc5c(N)ncnc53)[C@H](O)[C@@H]4O)cc2n1` [Compound 4, (1R,2R,3S,4R,5S)-4-(4-Amino-7H-pyrrolo[2,3-d]pyrimidin-7-yl)-1-(2-(3-aminoquinoxalin-6-yl)ethyl)bicyclo[3.1.0]hexane-2,3-diol], the IC50 was more than 1000 pM in assay [1], 250 to 950 pM in assay [2] and 1100 to 50000 pM in assay [3] (setting [4]).

As to `Nc1nc2cc(CCC3=C[C@@H](n4ncc5c(N)ncnc54)[C@H](O)[C@@H]3O)cc(F)c2cc1Cl` [Compound 5, (1S,2R,5R)-5-(4-Amino-1H-pyrazolo[3,4-d]pyrimidin-1-yl)-3-(2-(2-amino-3-chloro-5-fluoroquinolin-7-yl)ethyl)cyclopent-3-ene-1,2-diol], the IC50 lay within 101 to 1000 pM in assay [1] (setting [5]), 250 to 950 pM in assay [2] and 100 to 1000 pM in assay [3] (setting [5]).

With `Cc1nc(N)c2cnn([C@@H]3C=C(CCc4cc(F)c5cc(Cl)c(N)nc5c4)[C@@H](O)[C@H]3O)c2n1` [Compound 6, (1S,2R,5R)-3-(2-(2-amino-3-chloro-5-fluoroquinolin-7-yl)ethyl)-5-(4-amino-6-methyl-1H-pyrazolo[3,4-d]pyrimidin-1-yl)cyclopent-3-ene-1,2-diol], the IC50 in assay [1] (setting [5]) is 101 to 1000 pM; in assay [2], 250 to 950 pM; in assay [3] (setting [4]), 1100 to 50000 pM.

On to `Nc1ncnc2c1ccn2[C@@H]1C=C(COc2cc(C(F)F)cc3c2CNCC3)[C@@H](O)[C@H]1O` [Compound 7, (1S,2R,5R)-5-(4-amino-7H-pyrrolo[2,3-d]pyrimidin-7-yl)-3-(((6-(difluoromethyl)-1,2,3,4-tetrahydroisoquinolin-8-yl)oxy)methyl)cyclopent-3-ene-1,2-diol], for which the IC50 was more than 1000 pM in assay [1], 250 to 950 pM in assay [2] and 1100 to 50000 pM in assay [3] (setting [4]).

With `Nc1ccn([C@@H]2C=C(COc3cc(F)c4cc(Cl)c(N)nc4c3)[C@@H](O)[C@H]2O)c(=O)n1` [Compound 16, 4-Amino-1-((1R,4R,5S)-3-(((2-amino-3-chloro-5-fluoroquinolin-7-yl)oxy)methyl)-4,5-dihydroxycyclopent-2-en-1-yl)pyrimidin-2 (1H)-one], in assay [2], the IC50 is 250 to 950 pM.

`Nc1nc2cc(CCC3=C[C@@H](n4ccc5c4ncn4ccnc54)[C@H](O)[C@@H]3O)cc(F)c2cc1Cl` [Compound 27, (1S,2R,5R)-3-(2-(2-Amino-3-chloro-5-fluoroquinolin-7-yl)ethyl)-5-(7H-imidazo[1,2-c]pyrrolo[3,2-e]pyrimidin-7-yl)cyclopent-3-ene-1,2-diol]: the IC50 in assay [1] is more than 1000 pM; in assay [2], more than 950 pM.

Consider `Nc1nc2cc(CCC3=C[C@@H](n4ccc5cn6ccnc6nc54)[C@H](O)[C@@H]3O)ccc2cc1Cl` [Compound 28, (1S,2R,5R)-3-(2-(2-Amino-3-chloroquinolin-7-yl)ethyl)-5-(8H-imidazo[1,2-a]pyrrolo[2,3-d]pyrimidin-8-yl)cyclopent-3-ene-1,2-diol], for which the IC50 in assay [1] was more than 1000 pM; in assay [2], more than 950 pM.

Take `Nc1nc2cc(CCC3=C[C@@H](n4ncc5c4ncn4ccnc54)[C@H](O)[C@@H]3O)cc(F)c2cc1Cl` [Compound 29, (1S,2R,5R)-3-(2-(2-Amino-3-chloro-5-fluoroquinolin-7-yl)ethyl)-5-(7H-imidazo[1,2-c]pyrazolo[4,3-e]pyrimidin-7-yl)cyclopent-3-ene-1,2-diol]: the IC50 in assay [2] is more than 950 pM.

Turning to `CONc1ncnc2c1ccn2[C@@H]1C=C(CCc2cc(F)c3cc(Cl)c(N)nc3c2)[C@@H](O)[C@H]1O` [Compound 30, (1S,2R,5R)-3-(2-(2-Amino-3-chloro-5-fluoroquinolin-7-yl)ethyl)-5-(4-(methoxyamino)-7H-pyrrolo[2,3-d]pyrimidin-7-yl)cyclopent-3-ene-1,2-diol], the IC50 in assay [2] was 250 to 950 pM; in assay [3] (setting [5]) it was 100 to 1000 pM.
